Assay results: ChEMBL document CHEMBL1131194, “Covalent modification of cyclooxygenase-2 (COX-2) by 2-acetoxyphenyl alkyl sulfides, a new class of selective COX-2 inactivators” (J Med Chem, 1998)

What was measured:
[1] = target: T1, Prostaglandin G/H synthase 1 (Ovis aries, UniProt P05979); assay: Inhibitory concentration in DMSO with purified ovine Prostaglandin G/H synthase 1 (COX-1).
T1 sequence (P05979 whole entry): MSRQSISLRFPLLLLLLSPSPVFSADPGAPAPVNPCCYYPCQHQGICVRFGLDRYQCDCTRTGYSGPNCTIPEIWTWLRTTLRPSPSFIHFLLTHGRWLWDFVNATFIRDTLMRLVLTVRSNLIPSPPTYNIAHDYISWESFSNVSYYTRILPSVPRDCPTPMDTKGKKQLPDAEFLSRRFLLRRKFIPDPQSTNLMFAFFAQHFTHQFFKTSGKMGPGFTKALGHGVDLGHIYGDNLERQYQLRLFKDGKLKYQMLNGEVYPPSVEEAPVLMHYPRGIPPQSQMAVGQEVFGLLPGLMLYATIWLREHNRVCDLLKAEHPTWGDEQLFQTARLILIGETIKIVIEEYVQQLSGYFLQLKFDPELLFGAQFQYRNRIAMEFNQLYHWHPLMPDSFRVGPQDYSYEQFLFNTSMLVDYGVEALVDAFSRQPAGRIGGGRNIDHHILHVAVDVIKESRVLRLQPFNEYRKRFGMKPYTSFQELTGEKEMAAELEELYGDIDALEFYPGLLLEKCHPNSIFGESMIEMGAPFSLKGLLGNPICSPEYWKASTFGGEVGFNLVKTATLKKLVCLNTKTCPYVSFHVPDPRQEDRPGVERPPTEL

[2] = target: T2, Prostaglandin G/H synthase 2 (Homo sapiens, UniProt P35354); assay: Inhibitory concentration in DMSO with purified human Prostaglandin G/H synthase 2 (COX-2)
T2 sequence (P35354 whole entry): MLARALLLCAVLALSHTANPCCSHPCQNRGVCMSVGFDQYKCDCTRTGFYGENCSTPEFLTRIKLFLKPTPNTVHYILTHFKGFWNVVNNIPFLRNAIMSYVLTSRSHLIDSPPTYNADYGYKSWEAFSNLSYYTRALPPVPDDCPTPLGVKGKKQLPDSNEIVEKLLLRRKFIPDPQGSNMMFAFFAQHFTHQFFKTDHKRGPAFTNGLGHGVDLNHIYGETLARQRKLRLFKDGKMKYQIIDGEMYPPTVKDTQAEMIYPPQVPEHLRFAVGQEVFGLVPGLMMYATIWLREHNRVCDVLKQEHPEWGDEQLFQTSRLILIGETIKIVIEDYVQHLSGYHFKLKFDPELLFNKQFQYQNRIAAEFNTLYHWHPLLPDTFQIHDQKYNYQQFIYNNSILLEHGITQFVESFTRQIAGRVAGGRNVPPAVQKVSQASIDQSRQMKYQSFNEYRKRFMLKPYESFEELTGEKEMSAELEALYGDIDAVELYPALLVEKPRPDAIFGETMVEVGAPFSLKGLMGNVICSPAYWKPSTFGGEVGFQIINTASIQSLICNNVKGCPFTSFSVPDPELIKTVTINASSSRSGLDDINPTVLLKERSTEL

Row | Structure (SMILES) | IC50 [1] [µM] | IC50 [2] [µM]
1 | CC(=O)Oc1ccccc1SCCCCCC(=O)O | 50 | 50
2 | CC(=O)Oc1ccccc1SCCCCCO | > 50 | > 50
3 | CCCCCCCCc1ccccc1OC(C)=O | > 40 | > 40
4 | CCCCC#CCOc1ccccc1OC(C)=O | > 40 | > 40
5 | CC(=O)Oc1ccccc1SCCCCCBr | 34 | 9.5
6 | CCCCCCCOc1ccccc1OC(C)=O | > 40 | > 40
7 | CC(=O)Oc1ccccc1SCCCc1ccccc1 | > 1000 | > 1000
8 | CCCCC#CC(C)Sc1ccccc1OC(C)=O (configuration not stated) | 15 | 7
9 | CCCCC#CCSc1ccccc1OC(C)=O | 17 | –
10 | CCCCCCC[Se]c1ccccc1OC(C)=O | 12 | 12
11 | CSc1ccccc1OC(C)=O | > 5000 | –
12 | CC#CCSc1ccccc1OC(C)=O | 35 | –
13 | CC(=O)Oc1ccccc1SC1CCCCC1 | > 40 | > 40
14 | CCC(=O)Oc1ccccc1SC | > 1000 | > 1000
15 | CCCCC#CCSc1ccccc1OC(=O)CC | > 40 | > 40
16 | CCCCCCCCCSc1ccccc1OC(C)=O | > 40 | > 40
17 | CC(=O)Oc1ccccc1SCCCCCCBr | 25 | 12
18 | CC(=O)Oc1ccccc1SCCCCC(=O)O | > 50 | > 50
19 | CC(=O)Oc1ccccc1SCCCCCCI | 70 | 10
20 | CC(=O)Oc1ccccc1SCCCOc1ccccc1 | > 1000 | > 1000
21 | CCCCCCCCSc1ccccc1OC(C)=O | > 40 | > 40
22 | CCCCCCCS(=O)(=O)c1ccccc1OC(C)=O | > 40 | > 40

The next lines start with the values.

Row | IC50 [1] [µM] | IC50 [2] [µM] | Structure (SMILES)
23 | > 40 | > 40 | CCCCCCCN(C)c1ccccc1OC(C)=O
24 | > 50 | > 50 | CC(=O)Oc1ccccc1SCCCCC#N
25 | > 50 | > 50 | CCCOCCCSc1ccccc1OC(C)=O
26 | > 400 | – | CC(=O)Oc1ccccc1SCc1ccccc1
27 | > 40 | > 40 | CC(=O)Oc1ccccc1SC1CCCCCC1
28 | 50 | 50 | CC(=O)OCCCCCSc1ccccc1OC(C)=O
29 | > 150 | – | CC(=O)Oc1ccccc1SCCc1ccccc1
30 | 22 | – | CCCC/C=C/CSc1ccccc1OC(C)=O
31 | > 40 | > 40 | CCCCCCC[S+]([O-])c1ccccc1OC(C)=O (configuration not stated)
32 | 40 | – | CCCCSc1ccccc1OC(C)=O
